The values below come from US6339102B1, “Method and composition for treating and preventing retinal damage” (The United States of America as represented by the …, priority 1999, dated 2002).

One series relates to cultured neurons. In words: MTT neuroprotection assay in cultured neurons after H2O2 oxidative insult. The format is cell-based. Particulars: for % Neuroprotection: 4 h pre-treatment, 50 μM H2O2 30 min, MTT after 24 h, mean±SEM. On the procedure:
In a separate series of experiments, cultured neurons were pre-treated with four different concentrations of DHL with or without 10 mM SPBN for four hours. At the conclusion of the preincubation period, an oxidative insult was applied by adding 50 μM of hydrogen peroxide (H2O2) for an additional 30 min. Medium containing the H2O2 and antioxidants was then removed and Minimum Essential Medium (MEM) was added to the wells for 24 hours. Neuroprotection was then assessed by conducting the calorimetric MTT assay. One way ANOVA with significance of differences between means assessed by Tukey-Kramer Multiple Comparisons test.
Data are depicted as means±SEM (n=8). Significance was determined by one way ANOVA, and differences between the means was assessed by the Tukey-Kramer test. (See table 1).
(In general: Tetrazolium dyes change colour on reduction, which living cells bring about.)

For series [1], the system named is dissociated retinal cells. The series is described as follows: MTT viability of dissociated retinal cells exposed to NaCN and 2-deoxyglucose (simulated ischemia). In kind it is cell-based, rabbit. Particulars: NaCN and 2-DG giving approximately 60% toxicity, p<0.004.
The next series relates to traumatic brain injury. Particulars: administered either 15 minutes prior or 30 minutes post injury; preliminary studies; cited from earlier work.
Series [2] concerns focal ischemia. Particulars: rat; temporary model: given 3 hours or even 5 hours after start of recirculation; cited from earlier work.
The conditions of series [3]: cited from earlier work.
Another series relates to cortical contusion. Particulars: rat; cited from earlier work.
A further series deals with ferrous chloride. Particulars: mice, intracerebral lethal injection of ferrous chloride; cited from earlier work.
The conditions of series [4]: in vivo; cited from earlier work.
In series [5] the test system is focal ischemia. The settings on record: initiation of treatment delayed as long as 12 hours; cited from earlier work.
Another series has as its system striatal lesions. The settings on record: 100 mg/kg i.p. 30 min prior and q 8 hours for 48 hours after insult; or 300 mg/kg ip repeated; cited from earlier work.
For series [6] the following is noted: Aldrich catalog description; cited from earlier work.
In the next series the test system is retinal ganglion cells. Particulars: 500 ng by intraocular injection; Klocker et al.; cited from earlier work.
The subject of series [7] is ischemia-perfusion injury. The settings on record: gerbil; cited from earlier work.
For series [8] the following is noted: in vivo; cited from earlier work. This is another data set of the same source.
Series [9] concerns ischemia-perfusion injury. The settings on record: rat; cited from earlier work.
Another series relates to lesions of striatum. The settings on record: rats; cited from earlier work.

Where two headings read alike, the source gives them in different places.

In the case of `O=C(O)CCCC[C@@H](S)CCS` (racemic) [DHL, dihydrolipoic acid], the “% Neuroprotection” value is on record as 1.31 ± 5.23% with cultured neurons (DHL 3 μM), −3.68 ± 5.14% in the series with cultured neurons (DHL 10 μM), 7.04 ± 7.38% with cultured neurons (DHL 30 μM) and 28.48 ± 5.83% with cultured neurons (DHL 100 μM). Besides, the “protection against damage from NaCN and 2-DG (maximum effect)” value in series [1] (DHL 0.3 millimolar co-administered) is on record as “approximately 60%”. In addition, in [1] (Oryctolagus cuniculus, DHL 0.1 millimolar co-administered, read-out: protection against damage from NaCN and 2-DG (maximum effect)), the Emax was about 60%.
Regarding `CC(C)(C)[N+]([O-])=Cc1ccc(S(=O)(=O)[O-])cc1S(=O)(=O)[O-].[Na+].[Na+]` [NXY-059], in the series with traumatic brain injury, the “volume of necrosis after traumatic brain injury” value is “effective in decreasing volume of necrosis”. The “efficacy in temporary and permanent focal ischemia” value in the series with focal ischemia [2] was “effective”.
As to `CC(C)(C)[N+]([O-])=Cc1ccccc1` [PBN, α-Phenyl-N-tert-butylnitrone], the toxicity entry is on record as “somewhat toxic” in series [3] (in high concentrations) and “toxicity is a problem” in series [3] (very high doses). Besides, in the series on cortical contusion, the “accumulation of lactate following cortical contusion” value is “attenuate”. For the same compound, the “seizures and time to death after ferrous chloride” value in the series on ferrous chloride is “minimized seizures and delayed time to death”. In series [4], the “blood brain barrier crossing” value is recorded as “crosses the blood brain barrier”. For the same compound, the “neuroprotection in rat focal ischemia model” value in the series with focal ischemia [5] is reported as “neuroprotective”.
Turning to `CC(C)(C)[N+]([O-])=Cc1ccccc1S(=O)(=O)O` [SPBN, N-tert-Butyl-α-[2-sulfophenyl]-nitrone], in the series on cultured neurons (10 mM SPBN, at three of the four DHL concentrations tested), the “effect of SPBN on the neuroprotective efficacy of DHL” value is “significantly increased”. Besides, in the series on striatal lesions, the “protection against striatal toxin lesions (lesion volume)” value was “protective”. Moreover, the water solubility entry in series [6] is recorded as “water-soluble”. In the series on retinal ganglion cells, the “retinal ganglion cells rescued after axotomy” value is 27%.
In the case of `O=C(O)CCCCC1CCSS1` (stereo not drawn) [αLA, Alpha-lipoic acid], the “neuroprotection against ischemia-perfusion injury” value in series [7] and in [9] was “neuro-protective” each time. Moreover, the clinical safety result in [8] is “clinically safe”. Moreover, the “efficacy against NMDA and malonic acid lesions of striatum” value with lesions of striatum was “effective”.
